Assay results reported in patent US12723063B2, “GIPR-agonist compounds” (Eli Lilly and Company, priority 2019, dated 2026).
*1 amine or outer side, *2 acyl side, *3 side chain or, on linkers, in order; H or OH if unused. Where a SMILES comes first, the peptide text is derived from it. Side-chain parts run from the residue outwards. [ ]: non-standard residue; d: D form. The star is where a group is joined. C20 diacid = O=C(O)CCCCCCCCCCCCCCCCCCC(=O)*; γGlu = O=C(O)[C@H](CCC(=O)[*:2])N[*:1]; 4Pal = N[C@@H](Cc1ccncc1)C(=O)O; αMeL = CC(C)C[C@](C)(N)C(=O)O; Iva = CC[C@](C)(N)C(=O)O; Orn = NCCC[C@H](N)C(=O)O; AEEA = NCCOCCOCC(=O)O; Aib = CC(C)(N)C(=O)O

Tests used:
[1] = target: T1, human glucagon receptor (GcgR) (Homo sapiens, UniProt P47871); experiment: cAMP functional assay (HTRF) in HEK293 cells in presence of 0.1% casein; assay type: cell-based; conditions: HEK293 cells expressing human GcgR, geometric mean, read-out: hGcgR cAMP Rel EC50 nM (SEM, n)
T1 construct: expressed in transfected cells; host or cells: HEK293

[2] = target: T2, human glucose-dependent insulinotropic peptide receptor (GIPR) (Homo sapiens, UniProt P48546); experiment: as above; assay type: cell-based; conditions: HEK293 cells expressing human GIPR, geometric mean, read-out: hGIPR cAMP Rel EC50 nM (SEM, n)
T2 construct: expressed in transfected cells; host or cells: HEK293
T2 sequence (P48546 22-466): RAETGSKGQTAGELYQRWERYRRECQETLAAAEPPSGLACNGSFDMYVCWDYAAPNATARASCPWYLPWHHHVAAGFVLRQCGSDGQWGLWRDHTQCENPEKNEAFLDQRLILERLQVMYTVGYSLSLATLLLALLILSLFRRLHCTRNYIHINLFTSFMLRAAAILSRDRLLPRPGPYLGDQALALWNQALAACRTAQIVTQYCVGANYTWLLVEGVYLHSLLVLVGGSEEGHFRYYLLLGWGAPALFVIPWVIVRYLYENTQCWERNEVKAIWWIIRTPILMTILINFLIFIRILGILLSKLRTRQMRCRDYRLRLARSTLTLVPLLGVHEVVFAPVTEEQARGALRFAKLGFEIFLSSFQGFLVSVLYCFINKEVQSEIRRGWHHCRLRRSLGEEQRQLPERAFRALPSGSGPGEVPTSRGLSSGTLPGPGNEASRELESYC

T1 sequence (P47871 26-477): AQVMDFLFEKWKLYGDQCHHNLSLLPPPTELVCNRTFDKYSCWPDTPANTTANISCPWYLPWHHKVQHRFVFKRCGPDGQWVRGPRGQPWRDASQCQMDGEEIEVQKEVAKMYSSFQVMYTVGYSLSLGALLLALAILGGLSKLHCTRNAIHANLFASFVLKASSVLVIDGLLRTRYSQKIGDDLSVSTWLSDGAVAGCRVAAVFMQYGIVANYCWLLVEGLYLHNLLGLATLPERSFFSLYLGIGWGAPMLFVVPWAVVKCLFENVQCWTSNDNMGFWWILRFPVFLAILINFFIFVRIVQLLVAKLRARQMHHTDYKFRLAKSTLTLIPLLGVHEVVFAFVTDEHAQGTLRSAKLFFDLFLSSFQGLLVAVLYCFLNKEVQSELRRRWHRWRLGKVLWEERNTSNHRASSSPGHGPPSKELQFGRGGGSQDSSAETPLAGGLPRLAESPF

Structure (SMILES)	EC50 [1] [nM]	EC50 [2] [nM]
CC[C@H](C)[C@H](NC(=O)[C@H](CC(C)C)NC(=O)[C@@H](NC(=O)CNC(=O)[C@H](CCC(=O)O)NC(=O)C(C)(C)NC(=O)[C@@H](N)Cc1ccc(O)cc1)[C@@H](C)O)C(=O)N[C@@H](CO)C(=O)N[C@@H](CC(=O)O)C(=O)N[C@@H](Cc1ccc(O)cc1)C(=O)N[C@@H](CO)C(=O)N[C@H](C(=O)N[C@@](C)(CC(C)C)C(=O)N[C@@H](CC(C)C)C(=O)N[C@@H](CC(=O)O)C(=O)N[C@@H](CCCCN)C(=O)N[C@@H](CCCCNC(=O)COCCOCCNC(=O)COCCOCCNC(=O)CC[C@H](NC(=O)CCCCCCCCCCCCCCCCCCC(=O)O)C(=O)O)C(=O)N[C@@H](Cc1c[nH]cn1)C(=O)N[C@@H](CCC(N)=O)C(=O)NC(C)(C)C(=O)N[C@@H](CCC(=O)O)C(=O)N[C@@H](Cc1ccccc1)C(=O)N[C@H](C(=O)N[C@@H](CCC(=O)O)C(=O)N[C@@H](Cc1ccc(O)cc1)C(=O)N[C@@H](CC(C)C)C(=O)N[C@@H](CC(C)C)C(=O)N[C@@H](CCC(=O)O)C(=O)NCC(=O)NCC(=O)N1CCC[C@H]1C(=O)N[C@@H](CO)C(=O)N[C@@H](CO)C(=O)NCC(=O)N[C@@H](C)C(=O)N1CCC[C@H]1C(=O)N1CCC[C@H]1C(=O)N1CCC[C@H]1C(=O)N[C@@H](CO)C(N)=O)C(C)C)[C@@H](C)CC [Example 73] (H-Y[Aib]EGTLISDYSI[αMeL]LDKK([AEEA-AEEA-γGlu-C20 diacid])HQ[Aib]EFVEYLLEGGPSSGAPPPS-NH2)	> 5000	0.0151
CC[C@H](C)[C@H](NC(=O)[C@H](CO)NC(=O)[C@H](Cc1ccc(O)cc1)NC(=O)[C@H](CC(=O)O)NC(=O)[C@H](CO)NC(=O)[C@@H](NC(=O)[C@](C)(CC)NC(=O)[C@@H](NC(=O)CNC(=O)[C@H](CCC(=O)O)NC(=O)C(C)(C)NC(=O)[C@@H](N)Cc1ccc(O)cc1)[C@@H](C)O)[C@@H](C)CC)C(=O)N[C@@](C)(CC(C)C)C(=O)N[C@@H](CC(C)C)C(=O)N[C@@H](CC(=O)O)C(=O)N[C@@H](CCCCN)C(=O)N[C@@H](CCCCNC(=O)COCCOCCNC(=O)COCCOCCNC(=O)CC[C@H](NC(=O)CCCCCCCCCCCCCCCCCCC(=O)O)C(=O)O)C(=O)N[C@@H](Cc1c[nH]cn1)C(=O)N[C@@H](CCC(N)=O)C(=O)NC(C)(C)C(=O)N[C@@H](CC(=O)O)C(=O)N[C@@H](Cc1ccccc1)C(=O)N[C@H](C(=O)N[C@@H](CCC(=O)O)C(=O)N[C@@H](Cc1ccncc1)C(=O)N[C@@H](CC(C)C)C(=O)N[C@@H](CC(C)C)C(=O)N[C@@H](CCC(=O)O)C(=O)NCC(=O)NCC(=O)N1CCC[C@H]1C(=O)N[C@@H](CO)C(=O)N[C@@H](CO)C(=O)NCC(=O)N[C@@H](C)C(=O)N1CCC[C@H]1C(=O)N1CCC[C@H]1C(=O)N1CCC[C@H]1C(=O)N[C@@H](CO)C(N)=O)C(C)C [Example 74] (H-Y[Aib]EGT[Iva]ISDYSI[αMeL]LDKK([AEEA-AEEA-γGlu-C20 diacid])HQ[Aib]DFVE[4Pal]LLEGGPSSGAPPPS-NH2)	627	0.0167
CC[C@H](C)[C@H](NC(=O)[C@H](CO)NC(=O)[C@H](Cc1ccc(O)cc1)NC(=O)[C@H](CC(=O)O)NC(=O)[C@H](CO)NC(=O)[C@@H](NC(=O)[C@](C)(CC)NC(=O)[C@@H](NC(=O)CNC(=O)[C@H](CCC(=O)O)NC(=O)C(C)(C)NC(=O)[C@@H](N)Cc1ccc(O)cc1)[C@@H](C)O)[C@@H](C)CC)C(=O)N[C@@](C)(CC(C)C)C(=O)N[C@@H](CC(C)C)C(=O)N[C@@H](CC(=O)O)C(=O)N[C@@H](CCCCN)C(=O)N[C@@H](CCCCNC(=O)COCCOCCNC(=O)COCCOCCNC(=O)CC[C@H](NC(=O)CCCCCCCCCCCCCCCCCCC(=O)O)C(=O)O)C(=O)N[C@@H](Cc1c[nH]cn1)C(=O)N[C@@H](CCC(N)=O)C(=O)NC(C)(C)C(=O)N[C@@H](CC(=O)O)C(=O)N[C@@H](Cc1ccccc1)C(=O)N[C@H](C(=O)N[C@@H](CCC(=O)O)C(=O)N[C@@H](Cc1ccncc1)C(=O)N[C@@H](CC(C)C)C(=O)N[C@@H](CC(C)C)C(=O)N[C@@H](CCC(=O)O)C(=O)N[C@H](C(=O)NCC(=O)N1CCC[C@H]1C(=O)N[C@@H](CO)C(=O)N[C@@H](CO)C(=O)NCC(=O)N[C@@H](C)C(=O)N1CCC[C@H]1C(=O)N1CCC[C@H]1C(=O)N1CCC[C@H]1C(=O)N[C@@H](CO)C(N)=O)[C@@H](C)O)C(C)C [Example 75] (H-Y[Aib]EGT[Iva]ISDYSI[αMeL]LDKK([AEEA-AEEA-γGlu-C20 diacid])HQ[Aib]DFVE[4Pal]LLETGPSSGAPPPS-NH2)	2170	0.0182
CC[C@H](C)[C@H](NC(=O)[C@H](CO)NC(=O)[C@H](Cc1ccc(O)cc1)NC(=O)[C@H](CC(=O)O)NC(=O)[C@H](CO)NC(=O)[C@@H](NC(=O)[C@](C)(CC)NC(=O)[C@@H](NC(=O)CNC(=O)[C@H](CCC(=O)O)NC(=O)C(C)(C)NC(=O)[C@@H](N)Cc1ccc(O)cc1)[C@@H](C)O)[C@@H](C)CC)C(=O)N[C@@](C)(CC(C)C)C(=O)N[C@@H](CC(C)C)C(=O)N[C@@H](CC(=O)O)C(=O)N[C@@H](CCCN)C(=O)N[C@@H](CCCCNC(=O)COCCOCCNC(=O)COCCOCCNC(=O)CC[C@H](NC(=O)CCCCCCCCCCCCCCCCCCC(=O)O)C(=O)O)C(=O)N[C@@H](Cc1c[nH]cn1)C(=O)N[C@@H](CCC(N)=O)C(=O)NC(C)(C)C(=O)N[C@@H](CC(=O)O)C(=O)N[C@@H](Cc1ccccc1)C(=O)N[C@H](C(=O)N[C@@H](CCC(=O)O)C(=O)N[C@@H](Cc1ccncc1)C(=O)N[C@@H](CC(C)C)C(=O)N[C@@H](CC(C)C)C(=O)N[C@@H](CCC(=O)O)C(=O)NCC(=O)NCC(=O)N1CCC[C@H]1C(=O)N[C@@H](CO)C(=O)N[C@@H](CO)C(=O)NCC(=O)N[C@@H](C)C(=O)N1CCC[C@H]1C(=O)N1CCC[C@H]1C(=O)N1CCC[C@H]1C(=O)N[C@@H](CO)C(N)=O)C(C)C [Example 76] (H-Y[Aib]EGT[Iva]ISDYSI[αMeL]LD[Orn]K([AEEA-AEEA-γGlu-C20 diacid])HQ[Aib]DFVE[4Pal]LLEGGPSSGAPPPS-NH2)	1200	0.0154
CC[C@H](C)[C@H](NC(=O)[C@H](CO)NC(=O)[C@H](Cc1ccc(O)cc1)NC(=O)[C@H](CC(=O)O)NC(=O)[C@H](CO)NC(=O)[C@@H](NC(=O)[C@](C)(CC)NC(=O)[C@@H](NC(=O)CNC(=O)[C@H](CCC(=O)O)NC(=O)C(C)(C)NC(=O)[C@@H](N)Cc1ccc(O)cc1)[C@@H](C)O)[C@@H](C)CC)C(=O)N[C@@](C)(CC(C)C)C(=O)N[C@@H](CC(C)C)C(=O)N[C@@H](CC(=O)O)C(=O)N[C@@H](CCCN)C(=O)N[C@@H](CCCCNC(=O)COCCOCCNC(=O)COCCOCCNC(=O)CC[C@H](NC(=O)CCCCCCCCCCCCCCCCCCC(=O)O)C(=O)O)C(=O)N[C@@H](Cc1c[nH]cn1)C(=O)N[C@@H](CCC(N)=O)C(=O)NC(C)(C)C(=O)N[C@@H](CC(=O)O)C(=O)N[C@@H](Cc1ccccc1)C(=O)N[C@H](C(=O)N[C@@H](CCC(=O)O)C(=O)N[C@@H](Cc1ccncc1)C(=O)N[C@@H](CC(C)C)C(=O)N[C@@H](CC(C)C)C(=O)N[C@@H](CCC(=O)O)C(=O)N[C@H](C(=O)NCC(=O)N1CCC[C@H]1C(=O)N[C@@H](CO)C(=O)N[C@@H](CO)C(=O)NCC(=O)N[C@@H](C)C(=O)N1CCC[C@H]1C(=O)N1CCC[C@H]1C(=O)N1CCC[C@H]1C(=O)N[C@@H](CO)C(N)=O)[C@@H](C)O)C(C)C [Example 77] (H-Y[Aib]EGT[Iva]ISDYSI[αMeL]LD[Orn]K([AEEA-AEEA-γGlu-C20 diacid])HQ[Aib]DFVE[4Pal]LLETGPSSGAPPPS-NH2)	2660	0.0265
CC[C@H](C)[C@H](NC(=O)[C@H](Cc1ccccc1)NC(=O)[C@@H](NC(=O)CNC(=O)[C@H](CCC(=O)O)NC(=O)C(C)(C)NC(=O)[C@@H](N)Cc1ccc(O)cc1)[C@@H](C)O)C(=O)N[C@@H](CO)C(=O)N[C@@H](CC(=O)O)C(=O)N[C@@H](Cc1ccc(O)cc1)C(=O)N[C@@H](CO)C(=O)N[C@H](C(=O)N[C@@](C)(CC(C)C)C(=O)N[C@@H](CC(C)C)C(=O)N[C@@H](CC(=O)O)C(=O)N[C@@H](CCCCN)C(=O)N[C@@H](CCCCNC(=O)COCCOCCNC(=O)COCCOCCNC(=O)CC[C@H](NC(=O)CCCCCCCCCCCCCCCCCCC(=O)O)C(=O)O)C(=O)N[C@@H](Cc1c[nH]cn1)C(=O)N[C@@H](CCC(N)=O)C(=O)NC(C)(C)C(=O)N[C@@H](CC(=O)O)C(=O)N[C@@H](Cc1ccccc1)C(=O)N[C@H](C(=O)N[C@@H](CCC(=O)O)C(=O)N[C@@H](Cc1ccncc1)C(=O)N[C@@H](CC(C)C)C(=O)N[C@@H](CC(C)C)C(=O)N[C@@H](C)C(=O)N[C@@H](C)C(=O)NCC(=O)N1CCC[C@H]1C(=O)N[C@@H](CO)C(=O)N[C@@H](CO)C(=O)NCC(=O)N[C@@H](C)C(=O)N1CCC[C@H]1C(=O)N1CCC[C@H]1C(=O)N1CCC[C@H]1C(=O)N[C@@H](CO)C(N)=O)C(C)C)[C@@H](C)CC [Example 78]	3000	0.0125
